Reference: the supplement of paper PMC8671470
± gives the standard deviation of the averaged measurements.

What was measured:
HL-60 = test: cell viability (% survival relative to DMSO control); higher = less cytotoxic; conditions: 72 h
Summary of the method: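 For each screen, HL-60 cells in RPMI 1640 with 10% FBS carried either DMSO or 100 nM of one of three metabolic inhibitors while the full library was applied at five tenfold concentrations, 1–10,000 nM, in duplicate. Plates were 384-well and were kept 72 h at 37 °C, 5% CO2. Viability, measured by CellTiter-Glo, was normalised to wells with DMSO and with 10 μM proteasome inhibitor. Where area under the curve appears, it was fitted by four-parameter log-logistic models in drc and PharmacoGx.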

K-562 = test: cell viability (% survival relative to DMSO control, bortezomib = 0%); higher = less cytotoxic; conditions: 72 h
Summary of the method: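 Fifteen myeloid leukaemia cell lines (10 AML, 5 CML) were seeded at a density titrated to the linear growth range. They went into 384-well plates with compounds pre-printed at 1, 10, 100, 1000 or 10000 nM in duplicate. After 72 h at 37 °C with 5% CO2, viability was read by CellTiter-Glo luminescence. Values are percent survival, with vehicle set to 100% and a 10 µM positive control to 0%, averaged over the duplicates.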

[1] = 0.001 µM, co-treatment: AZD3965 100 nM
[2] = 0.001 µM, co-treatment: DMSO vehicle
[3] = 0.001 µM, co-treatment: GSK2194069 100 nM
[4] = 0.001 µM, co-treatment: pictilisib 100 nM
[5] = 0.01 µM, co-treatment: AZD3965 100 nM
[6] = 0.01 µM, co-treatment: DMSO vehicle
[7] = 0.01 µM, co-treatment: GSK2194069 100 nM
[8] = 0.01 µM, co-treatment: pictilisib 100 nM
[9] = 0.1 µM, co-treatment: AZD3965 100 nM
[10] = 0.1 µM, co-treatment: DMSO vehicle
[11] = 0.1 µM, co-treatment: GSK2194069 100 nM
[12] = 0.1 µM, co-treatment: pictilisib 100 nM
[13] = 1 µM, co-treatment: AZD3965 100 nM
[14] = 1 µM, co-treatment: DMSO vehicle
[15] = 1 µM, co-treatment: GSK2194069 100 nM
[16] = 1 µM, co-treatment: pictilisib 100 nM
[17] = 10 µM, co-treatment: AZD3965 100 nM
[18] = 10 µM, co-treatment: DMSO vehicle
[19] = 10 µM, co-treatment: GSK2194069 100 nM
[20] = 10 µM, co-treatment: pictilisib 100 nM

C[C@](N)(Cc1ccc(O)cc1)C(=O)O [Metirosine]
cell viability (HL-60; [1]): 101 ± 4.8% | cell viability (HL-60; [2]): 108 ± 5.7% | cell viability (HL-60; [3]): 105 ± 6% | cell viability (HL-60; [4]): 116 ± 5.2% | cell viability (HL-60; [5]): 101.8 ± 0.89% | cell viability (HL-60; [6]): 104 ± 3% | cell viability (HL-60; [7]): 104 ± 11% | cell viability (HL-60; [8]): 105 ± 17% | cell viability (HL-60; [9]): 99 ± 11% | cell viability (HL-60; [10]): 101 ± 4.5% | cell viability (HL-60; [11]): 98.9 ± 4% | cell viability (HL-60; [12]): 98.9 ± 5.9% | cell viability (HL-60; [13]): 95.8 ± 6.8% | cell viability (HL-60; [14]): 101 ± 5.1% | cell viability (HL-60; [15]): 93.8 ± 14% | cell viability (HL-60; [16]): 81.1 ± 8.7% | cell viability (HL-60; [17]): 97.76 ± 0.91% | cell viability (HL-60; [18]): 103 ± 1.1% | cell viability (HL-60; [19]): 99.6 ± 1% | cell viability (HL-60; [20]): 105 ± 10% | cell viability (K-562; 1 nM): 113% | cell viability (K-562; 10 nM): 90.2% | cell viability (K-562; 100 nM): 101% | cell viability (K-562; 1000 nM): 107% | cell viability (K-562; 10000 nM): 103%

COc1ccc(S(=O)(=O)N2CCN(S(=O)(=O)c3ccc4c(c3)OCCO4)CC2)cc1 [BML283]
cell viability (HL-60; [1]): 101.4 ± 0.56% | cell viability (HL-60; [2]): 102 ± 1.8% | cell viability (HL-60; [3]): 99.2 ± 4.8% | cell viability (HL-60; [4]): 105 ± 6% | cell viability (HL-60; [5]): 96.5 ± 11% | cell viability (HL-60; [6]): 86.2 ± 23% | cell viability (HL-60; [7]): 74.9 ± 37% | cell viability (HL-60; [8]): 74.7 ± 30% | cell viability (HL-60; [9]): 107 ± 2.3% | cell viability (HL-60; [10]): 103 ± 1.7% | cell viability (HL-60; [11]): 99.56 ± 0.47% | cell viability (HL-60; [12]): 100.2 ± 0.69% | cell viability (HL-60; [13]): 104 ± 9.1% | cell viability (HL-60; [14]): 107 ± 7.4% | cell viability (HL-60; [15]): 99.4 ± 1.7% | cell viability (HL-60; [16]): 90.1 ± 7.7% | cell viability (HL-60; [17]): 84 ± 9.5% | cell viability (HL-60; [18]): 97.1 ± 1.6% | cell viability (HL-60; [19]): 98.6 ± 6.9% | cell viability (HL-60; [20]): 77.4 ± 14% | cell viability (K-562; 1 nM): 107% | cell viability (K-562; 10 nM): 95.2% | cell viability (K-562; 100 nM): 97.7% | cell viability (K-562; 1000 nM): 92.5% | cell viability (K-562; 10000 nM): 98.6%

CC[C@H](C)C(=O)O[C@H]1C[C@@H](C)C=C2C=C[C@H](C)[C@H](CC[C@@H]3C[C@@H](O)CC(=O)O3)[C@H]21 [Lovastatin]
cell viability (HL-60; [1]): 92.4 ± 13% | cell viability (HL-60; [2]): 96.8 ± 1.3% | cell viability (HL-60; [3]): 104 ± 5.5% | cell viability (HL-60; [4]): 98.2 ± 4.6% | cell viability (HL-60; [5]): 104.3 ± 0.46% | cell viability (HL-60; [6]): 102 ± 4.3% | cell viability (HL-60; [7]): 107 ± 2.7% | cell viability (HL-60; [8]): 105 ± 0.52% | cell viability (HL-60; [9]): 101 ± 8.2% | cell viability (HL-60; [10]): 101 ± 4.2% | cell viability (HL-60; [11]): 104 ± 4.1% | cell viability (HL-60; [12]): 98.1 ± 9.3% | cell viability (HL-60; [13]): 98.2 ± 4.4% | cell viability (HL-60; [14]): 96.5 ± 3.8% | cell viability (HL-60; [15]): 102 ± 1.6% | cell viability (HL-60; [16]): 94.1 ± 12% | cell viability (HL-60; [17]): 94.1 ± 4.6% | cell viability (HL-60; [18]): 95.5 ± 2.6% | cell viability (HL-60; [19]): 98.48 ± 0.87% | cell viability (HL-60; [20]): 75.54 ± 0.27% | cell viability (K-562; 1 nM): 108% | cell viability (K-562; 10 nM): 98.9% | cell viability (K-562; 100 nM): 101% | cell viability (K-562; 1000 nM): 99.3% | cell viability (K-562; 10000 nM): 88.4%

CCCCC/C=C\C/C=C\C/C=C\C/C=C\CCCCN1C(=O)C=CC1=O [N-Arachidonylmaleimide]
cell viability (HL-60; [1]): 98.7 ± 5.8% | cell viability (HL-60; [2]): 92.6 ± 2.7% | cell viability (HL-60; [3]): 96.8 ± 12% | cell viability (HL-60; [4]): 96.4 ± 4.4% | cell viability (HL-60; [5]): 89.7 ± 24% | cell viability (HL-60; [6]): 95.4 ± 5.9% | cell viability (HL-60; [7]): 84.8 ± 18% | cell viability (HL-60; [8]): 84.8 ± 1.7% | cell viability (HL-60; [9]): 98.58 ± 0.45% | cell viability (HL-60; [10]): 101.04 ± 0.026% | cell viability (HL-60; [11]): 98.4 ± 4.1% | cell viability (HL-60; [12]): 97 ± 4.4% | cell viability (HL-60; [13]): 99.6 ± 8.7% | cell viability (HL-60; [14]): 101 ± 7.1% | cell viability (HL-60; [15]): 100 ± 3.1% | cell viability (HL-60; [16]): 97.89 ± 0.76% | cell viability (HL-60; [17]): 101 ± 1.9% | cell viability (HL-60; [18]): 100.9 ± 0.64% | cell viability (HL-60; [19]): 100.5 ± 0.71% | cell viability (HL-60; [20]): 103 ± 2.2% | cell viability (K-562; 1 nM): 103% | cell viability (K-562; 10 nM): 91.5% | cell viability (K-562; 100 nM): 93.4% | cell viability (K-562; 1000 nM): 110% | cell viability (K-562; 10000 nM): 90.6%
